What was measured:
[1] = test system: limbal stem cells (LSCs) in limbal explant outgrowth cultures; test: Flow cytometry of JC1 low side population in limbal explant outgrowth cultures; format: cell-based, human; conditions: for % JC1^low, Mean: Explant culture, Table 1; for JC1 exclusion cell cohort (JC1^low) / percentage in a lower left quadrant (LLQ): limbal explant culture; for JC1 exclusion cell cohort (JC1^low): 10 μM IWP2 or 3 μM CHIR99021 (FIG. 3); for percentage in a lower left quadrant (LLQ): 10 μM IWP2 or 3 μM CHIR99021, FSC/SSC, stem/precursor somatic cells (FIG. 3)
Experimental: First, a 0.4-μm pore polyester membrane insert (Costar, NY) with a diameter of 25 mm was put into a 6-well plate, and pre-equilibrated overnight cultured in a supplemented hormonal epithelial medium (SHEM). The SHEM was composed of 950 ml of Dulbecco's modified minimal essential medium (DMEM)/F-12 medium in which DMEM and Ham F12 are mixed in a ratio of 1:1, 50 ml of fetal bovine serum (FBS), 5 ng of a human recombinant epidermal growth factor (EGF), 28 mg of phosphoethanolamine, lx insulin-transferrin-selenium (ITS, Gibco), and 1× penicillin-streptomycin (Gibco). […] After 72 hours of culturing, the presence of an encircling island of outgrowth cells were confirmed, and then the medium was replaced with a fresh medium that just covered a surface of the explant, every 72 hours. Here, the cells were cultured with 10 μM of the Wnt inhibitor (IWP2) or 3 μM of the GSK3 inhibitor (CHIR99021), and then experiments that will be described below were performed. In order to determine a relative cell size and ABCG2 efflux activity, cells from limal explant outgrowth cultures were harvested by treatment with trypsin, the collected cells were seeded in 6-well plates at a cell density of 2×10^4/well, treated with 250 nM JC1 dye and incubated for 45 minutes. Afterward, the cells were detached again by trypsin treatment and diluted with FACS buffer to perform FACS analysis. JC1 is a dye binding to mitochondria in cells, efflux of the JC1 dye from cells in a side population strongly expressing ATP-binding cassette sub-family G member 2 (ABCG2) results in inhibition of mitochondria staining. Therefore, flow cytometry was performed on the cells treated with the JC1 dye using a FACS Calibur (BD Biosciences) at an emission wavelength of 531(green)/585(orange), and the side population (JC1^low) that was not stained with JC1 was measured.

[2] = test system: human limbal explant; test: Limbal explant outgrowth culture: outgrowth proliferation, area, cell yield, cell density; format: cell-based; conditions: for stained outgrowth area / cell yields: 10 μM IWP2 or 3 μM CHIR99021; for stained outgrowth area: Commassie blue R 250 staining, compared with control (FIG. 2a, 2b); for cell yields: trypan blue, hemocytometer, compared with normal control (FIG. 2c); for outgrowth proliferation rates of the explant: 10 μM IWP2 or 3 μM CHIR99021 in medium, phase contrast microscope, day 4 and 8, compared with control (FIG. 1); for Cell count, Mean: Explant culture, Table 1
Experimental: The corneal limbal tissue satisfying the above-described conditions was splitted into […] using a surgical instrument on a horizontal sterile-air-flow hood, and the conjunctival edge of each quarter was immersed shortly in 1% trypan blue (Sigma, USA) to stain conjunctival stroma, and all remnants of conjunctiva were carefully removed using conjunctival scissors. Afterward, a sclera tissue was trimmed away, and then each limbal strip was prepared after being cut to a thickness of 0.5 mm using a sharp blade. First, a 0.4-μm pore polyester membrane insert (Costar, NY) with a diameter of 25 mm was put into a 6-well plate, and pre-equilibrated overnight cultured in a supplemented hormonal epithelial medium (SHEM). The SHEM was composed of 950 ml of Dulbecco's modified minimal essential medium (DMEM)/F-12 medium in which DMEM and Ham F12 are mixed in a ratio of 1:1, 50 ml of fetal bovine serum (FBS), 5 ng of a human recombinant epidermal growth factor (EGF), 28 mg of phosphoethanolamine, lx insulin-transferrin-selenium (ITS, Gibco), and 1× penicillin-streptomycin (Gibco). Afterward, the limbal tissue cut into 8 sections with a length of 4 mm according to the method described in Example 1-1 was put on a polyester membrane to dispose an epithelial part face-up, and cultured under an air-liquid interface condition. After 72 hours of culturing, the presence of an encircling island of outgrowth cells were confirmed, and then the medium was replaced with a fresh medium that just covered a surface of the explant, every 72 hours. Here, the cells were cultured with 10 μM of the Wnt inhibitor (IWP2) or 3 μM of the GSK3 inhibitor (CHIR99021), and then experiments that will be described below were performed. To identify effects of the Wnt/β-catenin signaling on the limbal explant outgrowth cultures, cells were cultured by adding 10 μM of the Wnt inhibitor IWP2 or 3 μM of the Wnt signaling agonist CHIR99021 as a GSK3 inhibitor to a medium under the culture conditions for a human limbal explant cultures according to the methods described in Examples 1-1 and 1-2, and explant outgrowth proliferation was observed using a phase contrast microscope on day 4 and 8. […] In addition, cells were harvested by treating the limbal explant cultures with trypsin, stained with a 0.4% trypan blue solution, and cell yields were measured using a hemocytometer and then cell densities were quantitatively analyzed.

[3] = test system: human limbal epithelial cells; test: Viable cell count / cell yield in isolated limbal epithelial cell (single cell) culture; format: cell-based; conditions: for Cell count, Mean: Epithelial cells (single cell culture), Table 1
Experimental: (§1) The limbal tissue divided according to the method described in Example 1-1 was treated with 2 mg/ml Dispase II (Roche, Indianapolis, Ind.) diluted with keratinocyte medium (KSFM; Invitrogen, Carlsbad, Calif.) and overnight cultured at 4° C. Afterward, a limbal epithelium layer was gently sloughed off from its stromal base under the dissecting microscope, the epithelium layer was treated with TrypLE (GIBCO, Denmark) and cultured for 10 minutes, and then triturated with a pipette to generate a single cell suspension. These cells were seeded into a 25T flask coated with human type I collagen (PureCol^R, Biomatrix, SanDiego, Calif.) to be dispensed at a density of 2×10^5 cells/flask, and cultured in Cnt50 medium (Cell-N-Tec, Bern, Switzerland) complemented with bovine pituitary extract for up to 2 weeks.
According to Examples 2 to 4, it was identified that, in the limbal explant culture, the Wnt/β-catenin signaling is involved in the stimulation of explant outgrowth proliferation per unit area, and sternness improvement and differentiation inhibition of LSCs. Accordingly, an experiment was conducted to confirm whether the same effects as described above would be obtained, even when limbal epithelial cells were dissociated according to the method described in Example 1-3, and cultured as single cells. To this end, the limbal explant outgrowth cells according to the method described in Example 1-2 and the cells proliferated from the limbal epithelial cells according to the method described in Example 1-3 were harvested, and each type of cells was subjected to FACS analysis to measure a JC1^low ratio.
Based on the results of Example 6-1, cells cultured by the same method as described above were recovered to measure viable cell counts, yields of the limbal epithelial cells were measured.

[4] = test system: human limbal epithelial cells; test: Flow cytometry of JC1 low ratio in isolated limbal epithelial cell (single cell) culture; format: cell-based; conditions: Table 1
Experimental: as §1
In order to determine a relative cell size and ABCG2 efflux activity, cells from limal explant outgrowth cultures were harvested by treatment with trypsin, the collected cells were seeded in 6-well plates at a cell density of 2×10^4/well, treated with 250 nM JC1 dye and incubated for 45 minutes. […] Therefore, flow cytometry was performed on the cells treated with the JC1 dye using a FACS Calibur (BD Biosciences) at an emission wavelength of 531(green)/585(orange), and the side population (JC1^low) that was not stained with JC1 was measured. […]

[5] = test system: limbal explant outgrowth cells; test: Colony forming efficiency assay of cells harvested from explant outgrowth cultures; format: cell-based, human; conditions: cells from treated limbal explant outgrowth; cultured up to day 14; compared with control (FIG. 5)
Experimental: First, a 0.4-μm pore polyester membrane insert (Costar, NY) with a diameter of 25 mm was put into a 6-well plate, and pre-equilibrated overnight cultured in a supplemented hormonal epithelial medium (SHEM). The SHEM was composed of 950 ml of Dulbecco's modified minimal essential medium (DMEM)/F-12 medium in which DMEM and Ham F12 are mixed in a ratio of 1:1, 50 ml of fetal bovine serum (FBS), 5 ng of a human recombinant epidermal growth factor (EGF), 28 mg of phosphoethanolamine, lx insulin-transferrin-selenium (ITS, Gibco), and 1× penicillin-streptomycin (Gibco). […] After 72 hours of culturing, the presence of an encircling island of outgrowth cells were confirmed, and then the medium was replaced with a fresh medium that just covered a surface of the explant, every 72 hours. Here, the cells were cultured with 10 μM of the Wnt inhibitor (IWP2) or 3 μM of the GSK3 inhibitor (CHIR99021), and then experiments that will be described below were performed.

[6] = test system: LSC markers p63α and ABCG2, differentiation marker Krt3; test: Western blot of LSC markers and differentiation marker in limbal explant outgrowth cells; format: cell-based, human; conditions: for expression of the differentiation marker Krt3: western blot (FIG. 4); for protein expression of LSC marker ABCG2 / protein expression of LSC marker p63α: western blot, compared with control (FIG. 4)
Experimental: First, a 0.4-μm pore polyester membrane insert (Costar, NY) with a diameter of 25 mm was put into a 6-well plate, and pre-equilibrated overnight cultured in a supplemented hormonal epithelial medium (SHEM). The SHEM was composed of 950 ml of Dulbecco's modified minimal essential medium (DMEM)/F-12 medium in which DMEM and Ham F12 are mixed in a ratio of 1:1, 50 ml of fetal bovine serum (FBS), 5 ng of a human recombinant epidermal growth factor (EGF), 28 mg of phosphoethanolamine, lx insulin-transferrin-selenium (ITS, Gibco), and 1× penicillin-streptomycin (Gibco). Afterward, the limbal tissue cut into 8 sections with a length of 4 mm according to the method described in Example 1-1 was put on a polyester membrane to dispose an epithelial part face-up, and cultured under an air-liquid interface condition. After 72 hours of culturing, the presence of an encircling island of outgrowth cells were confirmed, and then the medium was replaced with a fresh medium that just covered a surface of the explant, every 72 hours. Here, the cells were cultured with 10 μM of the Wnt inhibitor (IWP2) or 3 μM of the GSK3 inhibitor (CHIR99021), and then experiments that will be described below were performed. Limbal explant outgrowth cells were washed with PBS, and lysed with a lysis buffer containing phosphatase inhibitor cocktail 2 (Sigma-Aldrich) and protease inhibitor cocktail (Roche Diagnostics). A lysate was boiled with a sample-loading buffer for 10 minutes and then centrifuged, resulting in isolation of a supernatant containing proteins in the cells, and a protein concentration was quantified using a BCA Protein Assay kit (Thermo Fisher Scientific, Rockford, Ill.). Afterward, equal amounts of protein in cell lysates were separated by 10% SDS-polyacrylamide gel electrophoresis (SDS-PAGE) under reducing conditions and electro-transferred to a PVDF membrane (Millipore, Billerica, Mass.). Afterward, The membrane was blocked with 5% skim milk in PBS containing 0.1% Tween 20, incubated at 4° C. for 18 h with primary mouse monoclonal antibodies (Abs) recognizing, β-catenin (BD Biosciences), ABCG2 (Abcam), Krt3 (Abcam) or a rabbit polyclonal antibody recognizing p63α (Abcam). After the washes, the membrane was incubated with a horseradish peroxidase-binding anti-mouse or anti-rabbit secondary antibody at room temperature for 1 hour. The membrane incubating with the secondary antibody was washed with 0.1% Tween 20-added PBS three times, treated with an ECL solution (Amersham Biosciences, Sweden) as a chemiluminescence reagent and developed, thereby analyzing an expression level of a protein to be observed. Also, to correct protein levels of the samples, a mouse monoclonal anti-β-actin primary antibody reacted with the membrane, and subsequent procedures were the same as described above. To identify effects of the Wnt/β-catenin signaling on LSC differentiation during the limbal explant culture, expression levels of the LSC markers p63α and ABCG2, and the differentiation marker Krt3 protein in the explant outgrowth cells were detected by western blot analysis according to the method described in Example 1-5.

SMILES | % JC1^low, Mean [1] [%] | JC1 exclusion cell cohort (JC1^low) [1] [%] | percentage in a lower left quadrant (LLQ) [1] [%] | stained outgrowth area [2] | cell yields [2] | outgrowth proliferation rates of the explant [2] | Cell count, Mean [2] | Cell count, Mean [3] | cell yields (viable cell counts) ([3]; single cell culture of limbal tissues (FIG. 6)) | % JC1^low, Mean [4] [%] | colony forming efficiency (CFE) [5] | expression of the differentiation marker Krt3 [6] | protein expression of LSC marker ABCG2 [6] | protein expression of LSC marker p63α [6] | cell density ([2]; 10 μM IWP2, cells/mm^2, compared with control and CHIR99021 group (FIG. 2d))
Cc1c[nH]c(-c2cnc(NCCNc3ccc(C#N)cn3)nc2-c2ccc(Cl)cc2Cl)n1 [CHIR99021] | 6.4 | 10.9±1.3 | 50.7±10.1 | smaller area | significantly decreased | sequentially decreased | 0.8 1 × 10^5 | 7.0 1 × 10^5 | very low | 23.9 | remarkably lower CFE | increased | remarkably decreased | remarkably decreased | –
Cc1ccc2nc(NC(=O)CSc3nc4c(c(=O)n3-c3ccccc3)SCC4)sc2c1 [IWP2, N-(6-Methyl-2-benzothiazolyl)-2-[(3,4,6,7-tetrahydro-4-oxo-3-phenylthieno[3,2-d]pyrimidin-2-yl)thio]-acetamide] | 27.9 | 29.6±2.6 | 72.8±1.9 | subsequently increased | no difference in cell yields | sequentially decreased | 4.3 1 × 10^5 | 4.1 1 × 10^5 | – | 9.8 | remarkably higher CFE | barely expressed | remarkably increased | remarkably increased | highest cell density

— patent US10894945B2, “Methods for improving proliferation and stemness of limbal stem cells” (CATHOLIC UNIVERSITY INDUSTRY ACADEMIC COOPERATION FOUNDATION, priority 2016, dated 2021)
